# Measured values as given in paper PMC7463651, “Phase I/Ib Study of Tenalisib (RP6530), a Dual PI3K δ/γ Inhibitor in Patients with Relapsed/Refractory T-Cell Lymphoma” (Cancers, 2020).
# Values joined by “and” are separate entries in the source; they are usually repeats but may differ in a detail not shown here. Equal entries are not always repeated.
# Tested on: relapsed/refractory CTCL
# Experiment: Efficacy assessment (ORR, DoR), CTCL patients
# Format: in vivo, human
# Settings: for Median DoR (95% CI) / ORR (95% CI): CTCL
# Experimental: Efficacy assessments included radiological, bone marrow biopsy/aspiration and skin assessments. In some cases, bone marrow disease alone was used for disease assessment. In these cases, response was reported as CR or non-CR.
# In CTCL patients, assessment of skin lesions was performed at screening, Day 1 of Cycle 3 and 5, approximately 12 weeks thereafter and at the end of treatment (EOT). Skin photographs were obtained for half body global and up to 5 selected representative index lesions at baseline, at Day 1 of Cycle 3, EOT, at PR/CR/progressive disease (PD) and as required as per the discretion of the Investigator. In case of nodal involvement, radiological assessment was performed at screening, Day 1 of Cycle 3 and 5 and approximately 12 weeks thereafter. Skin biopsy was performed from the most indurated area at screening, on C3D1 and to confirm a CR.
# The efficacy parameters included ORR and DoR. Revised Response Criteria for Malignant Lymphoma (Cheson 2007) was used for evaluation of PTCL [21]. International Society for Cutaneous Lymphomas Response Criteria for Mycosis Fungoides and Sezary Syndrome (SS) and Cutaneous Lymphoma Task Force of the European Organization for Research and Treatment of Cancer criteria were used for evaluation of CTCL patients. For skin scoring, the modified Severity Weighted Assessment Tool was used. For local index lesion skin scoring, the Composite Assessment of Index Lesion Severity was used.
# [1] = Dose Escalation 800 mg Fasting, N = 2
# [2] = Dose Escalation 800 mg Fed, N = 4
# [3] = Dose Expansion 800 mg Fasting, N = 12
compound,measurement,setting,value
CC[C@H](Nc1ncnc2[nH]cnc12)c1oc2ccccc2c(=O)c1-c1cccc(F)c1 [Tenalisib],"Partial response (PR), number of patients",CTCL patients,9 patients
same,Median DoR (95% CI),"Cumulative Total, N = 20","3.8 months and 3.8 (2.3, 12.8) months"
same,ORR (95% CI),"Cumulative Total, N = 20","45% and 45.0 (23.1, 68.5) %"
same,ORR (95% CI),"Dose Escalation 200 mg, N = 1","0.0 (0.0, 97.5) %"
same,Median DoR (95% CI),"Dose Escalation 400 mg, N = 1","3.8 (-,-) months"
same,ORR (95% CI),"Dose Escalation 400 mg, N = 1","100.0 (2.5, 100.0) %"
same,Median DoR (95% CI),[1],"2.3 (-,-) months"
same,ORR (95% CI),[1],"50.0 (1.3, 98.7) %"
same,Median DoR (95% CI),[2],"3.3 (1.7, 4.9) months"
same,ORR (95% CI),[2],"50.0 (6.8, 93.2) %"
same,Median DoR (95% CI),"Dose Escalation Total, N = 8","3.05 (1.7, 4.6) months"
same,ORR (95% CI),"Dose Escalation Total, N = 8","50.0 (15.7, 84.3) %"
same,Median DoR (95% CI),[3],"10.3 (2.6, 19.6) months"
same,ORR (95% CI),[3],"41.7 (15.2, 72.3) %"
